According to publication PMC7726675 (Data in Brief, 2020):

Test system: AAR^CAp
Settings: read-out: KM^AcAcCoA; NADH fixed at 300 µM; 50 mM Tris pH 8, 5 mM MgCl2, 5 mM NaCl; 30 °C

CC(=O)CC(=O)SCCNC(=O)CCNC(=O)[C@H](O)C(C)(C)COP(=O)(O)OP(=O)(O)OC[C@H]1O[C@@H](n2cnc3c(N)ncnc32)[C@H](O)[C@@H]1OP(=O)(O)O [acetoacetyl-CoA]
Km: 56.7 µM
